Read-outs that look alike come from different tables or passages of the source.
Assays:
[1] = tested on: tobacco mosaic virus (TMV); test: Anti-TMV in vitro effect (half-leaf soaking); format: cell-based, tobacco mosaic virus (host Nicotiana tabacum L.cv.Xanthi NN)
[2] = tested on: tobacco mosaic virus (TMV); test: Anti-TMV in vivo inactivation; set-up: species or system tobacco mosaic virus (host Nicotiana tabacum L.cv.Xanthi NN)
[3] = tested on: tobacco mosaic virus (TMV); test: Anti-TMV in vivo therapeutic effect; set-up: species or system tobacco mosaic virus (host Nicotiana tabacum L.cv.Xanthi NN)
[4] = tested on: tobacco mosaic virus (TMV); test: Anti-TMV in vivo protective effect; set-up: species or system tobacco mosaic virus (host Nicotiana tabacum L.cv.Xanthi NN)
cucumber fusarium wilt = test: Fungicidal (bactericidal) activity in vitro, PDA colony diameter; format: cell-based; settings: 50 mg/kg
Cercospora arachidicola = test: as above; format: cell-based; settings: 50 mg/kg
Macrophoma kawatsukai = test: as above; format: cell-based; settings: 50 mg/kg
Alternaria solani = test: as above; format: cell-based; settings: 50 mg/kg
Fusarium graminearumt = test: microbe, parasite or virus in culture; format: cell-based; settings: 50 mg/kg
potato late blight = test: microbe, parasite or virus in culture; format: cell-based
Sclerotinia scleotiorum = test: Fungicidal (bactericidal) activity in vitro, PDA colony diameter; format: cell-based; settings: 50 mg/kg
Botrytis cinerea = test: as above; format: cell-based; settings: 50 mg/kg
Rhizoctonia solani = test: as above; format: cell-based; settings: 50 mg/kg
Phytophthora capsici = test: as above; format: cell-based; settings: 50 mg/kg
Fusarium fujikuroi = test: as above; format: cell-based; settings: 50 mg/kg
Rhizoctonia cereali = test: as above; format: cell-based; settings: 50 mg/kg
Bipolaria maydis = test: organism not typed; format: cell-based; settings: 50 mg/kg
[5] = tested on: Colletotrichum orbiculare; test: Fungicidal (bactericidal) activity in vitro, PDA colony diameter; format: cell-based; settings: 50 mg/kg
armyworms = format: in vivo; settings: concentration 600 mg/kg
cotton bollworms = test: whole plant or invertebrate
Protocol: Experimental method of cotton bollworms: feed and drug mixing method: measure 3 mL of prepared solution and add it to about 27 g of newly prepared feed, thereby obtaining needed concentration through dilution by 10 times.

mosquito larvae = test: whole plant or invertebrate
Protocol: Experimental method of mosquito larvae: culex pipiens pallens, a normal colony raised indoors. Weigh about 5 mg of the compound for test, put it in a penicillin vial, add 5 mL of acetone (or an appropriate solvent), and shake and dissolve it to obtain a 1000 ppm mother solution. Pipette 0.5 mL of the mother solution, add it to a 100 mL beaker filled with 89.9 mL of water, select 10 mosquito larvae at the beginning of the fourth instar, and pour them to a beaker together with 10 mL of feeding solution. The concentration of the drug solution is 5 ppm. […] Use an aqueous solution containing 0.5 mL of test solvent as a blank.

Row | SMILES | Relative inhibition rate (%) In vitro activity ([1]; treatment dose 100 μg/mL) [%] | Relative inhibition rate (%) In vitro activity ([1]; treatment dose 500 μg/mL) [%] | Relative inhibition rate (%) In vivo inactivation ([2]; treatment dose 100 μg/mL) [%] | Relative inhibition rate (%) In vivo inactivation ([2]; treatment dose 500 μg/mL) [%] | Relative inhibition rate (%) In vivo therapy ([3]; treatment dose 100 μg/mL) [%] | Relative inhibition rate (%) In vivo therapy ([3]; treatment dose 500 μg/mL) [%] | Relative inhibition rate (%) In vivo protection ([4]; treatment dose 100 μg/mL) [%] | Relative inhibition rate (%) In vivo protection ([4]; treatment dose 500 μg/mL) [%] | Bactericidal activity (%) Cucumber fusarium wilt (cucumber fusarium wilt) [%] | Bactericidal activity (%) Cercospora arachidicola (Cercospora arachidicola) [%] | Bactericidal activity (%) Macrophoma kawatsukai (Macrophoma kawatsukai) [%] | Bactericidal activity (%) Alternaria solani (Alternaria solani) [%] | Bactericidal activity (%) Fusarium graminearumt (Fusarium graminearumt) [%] | Bactericidal activity (%) potato late blight (potato late blight) [%] | Bactericidal activity (%) Sclerotinia scleotiorum (Sclerotinia scleotiorum) [%] | Bactericidal activity (%) Botrytis cinerea (Botrytis cinerea) [%] | Bactericidal activity (%) Rhizoctonia solani (Rhizoctonia solani) [%] | Bactericidal activity (%) Phytophthora capsici (Phytophthora capsici) [%] | Bactericidal activity (%) Fusarium fujikuroi (Fusarium fujikuroi) [%] | Bactericidal activity (%) Rhizoctonia cereali (Rhizoctonia cereali) [%] | also measured
1 | C[C@@H]1N[C@H](C(=O)NCCO)Cc2c1[nH]c1ccccc21 [Ib-18, (1S, 3S)—N-(2-ethoxyl)-1-methyl-2,3,4,9-tetrahydro-pyridino [3,4-b] indol-3-formamide] | 5.4 | 37.6 | 10 | 41.5 | 18.6 | 40 | 12.1 | 41 | 23.8 | 21.4 | 70.6 | 27.8 | 28.6 | 5.0 | 68.0 | 27.3 | 35.7 | 36.4 | 35.7 | 53.1 | Bactericidal activity (%) Bipolaria maydis (Bipolaria maydis): 26.3%; Bactericidal activity (%) Colletotrichum orbiculare [5]: 23.8%; Armyworm Mortality (%) (armyworms): 5%; Cotton bollworm Mortality (%) (cotton bollworms; concentration 600 mg/kg): 5%; Mosquito larvae Mortality (%) (mosquito larvae; concentration 10 mg/kg, 24 h): 10%; Corn borer Mortality (%) (corn borers; concentration 600 mg/kg): 5%
2 | C[C@@H]1N[C@H](C(=O)NN=Cc2ccccn2)Cc2c1[nH]c1ccccc21 [Ic-17, (1S, 3S)—N′-(pyridine-2-methylene)-1-methyl-2,3,4,9-tetrahydropyridino [3,4-b] indol-3-formylhydrazine] | 0 | 32.7 | 9.2 | 38.9 | 0 | 36.8 | 0 | 31.4 | 23.1 | 23.5 | 75.0 | 20.0 | 20.7 | 12.0 | 5.9 | 36.4 | 21.1 | 18.4 | 21.4 | 41.2 | Bactericidal activity (%) Bipolaria maydis (Bipolaria maydis): 16.0%; Bactericidal activity (%) Colletotrichum orbiculare [5]: 25.9%; Armyworm Mortality (%) (armyworms): 25%; Cotton bollworm Mortality (%) (cotton bollworms; in vivo): 20%; Mosquito larvae Mortality (%) (mosquito larvae; in vivo): 50%; Corn borer Mortality (%) (corn borers; in vivo): 20%

Source: patent publication US10208033B2, “β-carboline, dihydro-β-carboline and tetrahydro-β-carboline alkaloid derivatives and preparation methods same and use in aspects of preventing and treating plant viruses, fungicides and insecticides” (NANKAI UNIVERSITY, priority 2013, dated 2019)
